Legend:
Type in all cases: in vivo
[1] = tested on: sedge, umbrella (small-flower umbrella sedge, Cyperus difformis); assay: Test B flooded paddy test, plant response rating; conditions: 250 g ai/ha; Flood; scale of 0 to 100 where 0 is no effect and 100 is complete control; 13 to 15 days
Method in brief: (§1)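 Compound was added to standing water 3 cm above soil, flood maintained, and plants held in a greenhouse before visual scoring against controls at 13 to 15 days.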

[2] = tested on: ducksalad (Heteranthera limosa); assay: Test B flooded paddy test, plant response rating; conditions: 250 g ai/ha; Flood; scale of 0 to 100 where 0 is no effect and 100 is complete control; 13 to 15 days
Method in brief: as §1

[3] = tested on: barnyardgrass (Echinochloa crus-galli); assay: Test B flooded paddy test, plant response rating; conditions: 250 g ai/ha; Flood; scale of 0 to 100 where 0 is no effect and 100 is complete control; 13 to 15 days
Method in brief: as §1

[4] = tested on: rice (Oryza sativa); assay: Test B flooded paddy test, plant response rating; conditions: 250 g ai/ha; Flood; scale of 0 to 100 where 0 is no effect and 100 is complete control; 13 to 15 days
Method in brief: as §1

[5] = tested on: Italian ryegrass (Lolium multiflorum); assay: Test A postemergence, visual injury rating; conditions: 0 is no effect, 100 is complete control; for Ryegrass, Italian plant response rating: 0 to 100 scale, approximately 10 days
Method in brief: (§2)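 Visual 0–100 rating (100 = complete control) taken about 10 d post-treatment relative to untreated checks. Preemergence: directed soil spray on sown loam/sand pots. Postemergence: seedlings 2–10 cm, 1–2 leaf. Non-phytotoxic solvent formulation with surfactant.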

[6] = tested on: blackgrass (Alopecurus myosuroides); assay: Test A postemergence, visual injury rating; conditions: 0 is no effect, 100 is complete control; for Blackgrass plant response rating: 31 g ai/ha, 0 to 100 scale, approximately 10 days
Method in brief: as §2

[7] = tested on: giant foxtail (Setaria faberii); assay: Test A postemergence, visual injury rating; conditions: 0 is no effect, 100 is complete control; for Foxtail, Giant plant response rating: 31 g ai/ha, 0 to 100 scale, approximately 10 days
Method in brief: as §2

[8] = tested on: barnyardgrass (Echinochloa crus-galli); assay: Test A postemergence, visual injury rating; conditions: 0 is no effect, 100 is complete control; for Barnyardgrass plant response rating: 31 g ai/ha, 0 to 100 scale, approximately 10 days
Method in brief: as §2

[9] = tested on: pigweed (Amaranthus retroflexus); assay: Test A postemergence, visual injury rating; conditions: 0 is no effect, 100 is complete control; for Pigweed plant response rating: 0 to 100 scale, approximately 10 days
Method in brief: as §2

[10] = tested on: wheat (Triticum aestivum); assay: Test A postemergence, visual injury rating; conditions: 0 is no effect, 100 is complete control; for Wheat plant response rating: 0 to 100 scale, approximately 10 days
Method in brief: as §2

[11] = tested on: ragweed (common ragweed, Ambrosia elatior); assay: Test A postemergence, visual injury rating; conditions: 0 is no effect, 100 is complete control; for Ragweed plant response rating: 0 to 100 scale, approximately 10 days
Method in brief: as §2

[12] = tested on: corn (Zea mays); assay: Test A postemergence, visual injury rating; conditions: 0 is no effect, 100 is complete control; for Corn plant response rating: 31 g ai/ha, 0 to 100 scale, approximately 10 days
Method in brief: as §2

[13] = tested on: galium (catchweed bedstraw, Galium aparine); assay: Test A postemergence, visual injury rating; conditions: 0 is no effect, 100 is complete control; for Galium plant response rating: 31 g ai/ha, 0 to 100 scale, approximately 10 days
Method in brief: as §2

[14] = tested on: kochia (Kochia scoparia); assay: Test A postemergence, visual injury rating; conditions: 0 is no effect, 100 is complete control; for Kochia plant response rating: 0 to 100 scale, approximately 10 days
Method in brief: as §2

[15] = tested on: Italian ryegrass (Lolium multiflorum); assay: Test A preemergence, visual injury rating; conditions: for Plant response rating, Ryegrass, Italian: 31 g ai/ha, 0 to 100 scale, 0 no effect, 100 complete control; for Ryegrass, Italian plant response rating: 0 to 100 scale (0 no effect, 100 complete control)
Method in brief: as §2

[16] = tested on: giant foxtail (Setaria faberii); assay: Test A preemergence, visual injury rating; conditions: for Plant response rating, Foxtail, Giant: 31 g ai/ha, 0 to 100 scale, 0 no effect, 100 complete control; for Foxtail, Giant plant response rating: 0 to 100 scale (0 no effect, 100 complete control)
Method in brief: as §2

[17] = tested on: barnyardgrass (Echinochloa crus-galli); assay: Test A preemergence, visual injury rating; conditions: for Plant response rating, Barnyardgrass: 31 g ai/ha, 0 to 100 scale, 0 no effect, 100 complete control; for Barnyardgrass plant response rating: 0 to 100 scale (0 no effect, 100 complete control)
Method in brief: as §2

[18] = tested on: pigweed (Amaranthus retroflexus); assay: Test A preemergence, visual injury rating; conditions: for Plant response rating, Pigweed: 31 g ai/ha, 0 to 100 scale, 0 no effect, 100 complete control; for Pigweed plant response rating: 0 to 100 scale (0 no effect, 100 complete control)
Method in brief: as §2

[19] = tested on: ragweed (common ragweed, Ambrosia elatior); assay: Test A preemergence, visual injury rating; conditions: for Plant response rating, Ragweed: 31 g ai/ha, 0 to 100 scale, 0 no effect, 100 complete control; for Ragweed plant response rating: 0 to 100 scale (0 no effect, 100 complete control)
Method in brief: as §2

[20] = tested on: kochia (Kochia scoparia); assay: Test A preemergence, visual injury rating; conditions: for Plant response rating, Kochia: 31 g ai/ha, 0 to 100 scale, 0 no effect, 100 complete control; for Kochia plant response rating: 0 to 100 scale (0 no effect, 100 complete control)
Method in brief: as §2

Structure (SMILES)	Plant response rating, Sedge, Umbrella [1]	Plant response rating, Ducksalad [2]	Plant response rating, Barnyardgrass [3]	Plant response rating, Rice [4]	Ryegrass, Italian plant response rating ([5]; 125 g ai/ha)	Blackgrass plant response rating (0 to 100 scale) ([6]; 125 g ai/ha)	Foxtail, Giant plant response rating (0 to 100 scale) ([7]; 125 g ai/ha)	Barnyardgrass plant response rating (0 to 100 scale) ([8]; 125 g ai/ha)	Pigweed plant response rating ([9]; 125 g ai/ha)	Wheat plant response rating ([10]; 125 g ai/ha)	Ragweed plant response rating ([11]; 125 g ai/ha)	Corn plant response rating (0 to 100 scale) ([12]; 125 g ai/ha)	Galium plant response rating (0 to 100 scale) ([13]; 125 g ai/ha)	Kochia plant response rating ([14]; 125 g ai/ha)	Ryegrass, Italian plant response rating ([15]; 125 g ai/ha)	Foxtail, Giant plant response rating ([16]; 125 g ai/ha)	Barnyardgrass plant response rating ([17]; 125 g ai/ha)	Pigweed plant response rating ([18]; 125 g ai/ha)	Ragweed plant response rating ([19]; 125 g ai/ha)	Kochia plant response rating ([20]; 125 g ai/ha)	other results
CCCSC(=O)c1c(Br)cccc1Oc1ncc(Cl)cn1 [Compound 70]	80	70	0	0	20	20	30	30	20	0	20	10	70	70	0	60	20	0	0	0	Ryegrass, Italian plant response rating ([5]; 31 g ai/ha): 0; Blackgrass plant response rating [6]: 0; Foxtail, Giant plant response rating [7]: 0; Barnyardgrass plant response rating [8]: 0; Pigweed plant response rating ([9]; 31 g ai/ha): 10; Wheat plant response rating ([10]; 31 g ai/ha): 0; Ragweed plant response rating ([11]; 31 g ai/ha): 0; Corn plant response rating [12]: 10; Galium plant response rating [13]: 30; Kochia plant response rating ([14]; 31 g ai/ha): 20; Plant response rating, Ryegrass, Italian [15]: 0; Plant response rating, Foxtail, Giant [16]: 0; Plant response rating, Barnyardgrass [17]: 0; Plant response rating, Pigweed [18]: 0; Plant response rating, Ragweed [19]: 0; Plant response rating, Kochia [20]: 0
O=C(SCCC(F)(F)F)c1c(Br)cccc1Oc1ncc(Cl)cn1 [Compound 71]	95	90	0	0	20	30	40	40	70	0	20	20	90	50	0	100	10	40	0	0	Ryegrass, Italian plant response rating ([5]; 31 g ai/ha): 0; Blackgrass plant response rating [6]: 10; Foxtail, Giant plant response rating [7]: 10; Barnyardgrass plant response rating [8]: 0; Pigweed plant response rating ([9]; 31 g ai/ha): 30; Wheat plant response rating ([10]; 31 g ai/ha): 0; Ragweed plant response rating ([11]; 31 g ai/ha): 0; Corn plant response rating [12]: 10; Galium plant response rating [13]: 30; Kochia plant response rating ([14]; 31 g ai/ha): 10; Plant response rating, Ryegrass, Italian [15]: 0; Plant response rating, Foxtail, Giant [16]: 40; Plant response rating, Barnyardgrass [17]: 0; Plant response rating, Pigweed [18]: 0; Plant response rating, Ragweed [19]: 0; Plant response rating, Kochia [20]: 0
FC(F)(F)CCCOCc1c(Br)cccc1Oc1ncc(Cl)cn1 [Compound 74]	100	100	40	0	20	30	70	40	100	10	10	20	80	40	20	100	60	90	0	100	Ryegrass, Italian plant response rating ([5]; 31 g ai/ha): 0; Blackgrass plant response rating [6]: 10; Foxtail, Giant plant response rating [7]: 20; Barnyardgrass plant response rating [8]: 10; Pigweed plant response rating ([9]; 31 g ai/ha): 60; Wheat plant response rating ([10]; 31 g ai/ha): 0; Ragweed plant response rating ([11]; 31 g ai/ha): 0; Corn plant response rating [12]: 10; Galium plant response rating [13]: 20; Kochia plant response rating ([14]; 31 g ai/ha): 20; Plant response rating, Ryegrass, Italian [15]: 0; Plant response rating, Foxtail, Giant [16]: 40; Plant response rating, Barnyardgrass [17]: 10; Plant response rating, Pigweed [18]: 20; Plant response rating, Ragweed [19]: 0; Plant response rating, Kochia [20]: 0
CC(=NOC(C)C)c1c(F)cccc1Oc1ncc(Cl)cn1 [Compound 76]	70	85	0	10	0	0	0	0	30	0	0	0	90	0	0	70	70	50	0	0	Ryegrass, Italian plant response rating ([5]; 31 g ai/ha): 0; Blackgrass plant response rating [6]: 0; Foxtail, Giant plant response rating [7]: 0; Barnyardgrass plant response rating [8]: 0; Pigweed plant response rating ([9]; 31 g ai/ha): 0; Wheat plant response rating ([10]; 31 g ai/ha): 0; Ragweed plant response rating ([11]; 31 g ai/ha): 0; Corn plant response rating [12]: 0; Galium plant response rating [13]: 0; Kochia plant response rating ([14]; 31 g ai/ha): 0; Plant response rating, Ryegrass, Italian [15]: 0; Plant response rating, Foxtail, Giant [16]: 0; Plant response rating, Barnyardgrass [17]: 0; Plant response rating, Pigweed [18]: 0; Plant response rating, Ragweed [19]: 0; Plant response rating, Kochia [20]: 0
O=C(OC1CCC1)c1c(Br)cccc1Oc1ncc(Cl)cn1 [Compound 78]	80	70	20	15	0	20	50	60	80	20	0	40	70	70	0	90	60	80	0	20	Ryegrass, Italian plant response rating (0 to 100 scale) ([5]; 500 g ai/ha): 30; Blackgrass plant response rating (0 to 100 scale) ([6]; 500 g ai/ha): 60; Foxtail, Giant plant response rating (0 to 100 scale) ([7]; 500 g ai/ha): 80; Barnyardgrass plant response rating (0 to 100 scale) ([8]; 500 g ai/ha): 100; Pigweed plant response rating (0 to 100 scale) ([9]; 500 g ai/ha): 90; Wheat plant response rating (0 to 100 scale) ([10]; 500 g ai/ha): 30; Ragweed plant response rating (0 to 100 scale) ([11]; 500 g ai/ha): 30; Corn plant response rating (0 to 100 scale) ([12]; 500 g ai/ha): 60; Galium plant response rating (0 to 100 scale) ([13]; 500 g ai/ha): 100; Kochia plant response rating (0 to 100 scale) ([14]; 500 g ai/ha): 100; Ryegrass, Italian plant response rating ([15]; 500 g ai/ha): 20; Foxtail, Giant plant response rating ([16]; 500 g ai/ha): 100; Barnyardgrass plant response rating ([17]; 500 g ai/ha): 100; Pigweed plant response rating ([18]; 500 g ai/ha): 100; Ragweed plant response rating ([19]; 500 g ai/ha): 0; Kochia plant response rating ([20]; 500 g ai/ha): 60
